Laboratory results taken from PMC9154759 (2022).

System: aptamer 1 (DNA, aptamer) GGGAGCTCAGAATAAACGCTCAATACTATCGCGGAGACAGCGCGGGAGGCACCGGGGAGATCCGGGCCTCATGTCGAA
Assay: berberine fluorescence enhancement (ex 365 nm, em 530 nm)
Details: 37 °C, 30 min; 50 μg/mL berberine, 0-280 nM aptamer, plateau at 200 nM; binding buffer not stated

binding: yes
Structure (SMILES): COc1ccc2cc3[n+](cc2c1OC)CCc1cc2c(cc1-3)OCO2
